The values that follow come from patent publication US5466716A, “Liposomal trimethylsphingosine” (The Biomembrane Institute, priority 1994, dated 1995).

The term viability denotes a read-out of living cells in per cent, often relative to untreated cells.

The test system of one data set is neutrophils. In words: neutrophil viability (trypan blue exclusion). It is filed as cell-based, human. The note with it: for cytotoxic damage to neutrophils: 25 μM. How it is done: (§1) The viability was evaluated by trypan blue exclusion assay. The cell
(§2) incubated at 37° C. for 10 min with effectors. The aliquot was
(§3) mixed with an equal amount of trypan blue solution and immediately counte
(§4) under a Nikon light microscope.

Data set [1] can be described thus: neutrophil viability (trypan blue exclusion). It is filed as cell-based, human. The note with it: neutrophils. How it is done: as §1, §2, §3, §4
The test system of data set [2] is phosphoinositide turnover. In words: fMLP-induced phosphoinositide turnover in neutrophils (32P incorporation). It is filed as cell-based, human. To be noted: for activity at 5 µM: Homo sapiens, Neutrophil, Table VI, 5 μM effector plus fMLP, control 100, read-out: PIP labeling. Here is the method: Amount of ^32 P in PIP and PIP2 was measured using TLC separation. The spots on TLC plates were scraped off and the radioactivity therein was measured with a Beckman scintillation counter. Each spot was compared as to intensity with the identical spot of the control sample.
After incubation, the cells were washed and resuspended in the same buffer at a concentration of 1×10^7 cells/ml. Each suspension (1 ml) then was pretreated with TMS, SPN or DMS, or equal volume of 50% ethanol, for 10 min at 37° C. Then keeping the same temperature, fMLP was added to a final concentration of 1.0 μM. Two minutes later, the reaction was terminated by adding 3.75 ml of chloroform/methanol (1:2) to each cell suspension, followed by sonication for 15 min. An additional 1.25 ml of chloroform, 1.25 ml of water and 50 μl of acetone were added and the total mixture was mixed and left overnight.
Following centrifugation of the mixture, the phospholipids were extracted by Folch's partition method, taking the lower phase from the cell lysate. […] The TLC plate was developed with control phospholipids, in a solvent comprising chloroform/methanol/4M NaOH at a ratio of 45:35:10 and containing 0.1% CDTA (trans-1,2-diaminocyclohexane-N,N,N',N'-tetraacetic acid) for 65 min at 37° C. The bands were identified by staining the control phospholipids with primuline and visualization under ultraviolet light. Autoradiography was performed with Kodak diagnostic film GBX-2 (Rochester N.Y.) by exposing overnight at 37° C.

The subject of data set [3] is 47 kDa and 65 kDa proteins. Description: PMA-induced phosphorylation of 47 kDa and 65 kDa neutrophil proteins. The data set is classed as cell-based, human. The note with it: for phosphorylation of 47 kDa and 65 kDa proteins / time in which inhibitory effect on phosphorylation is observed: 15-45 μM; for phosphorylation of 47 kDa and 65 kDa proteins: PMA 1.5 μM; for time in which inhibitory effect on phosphorylation is observed: incubation. Here is the method: Excess unbound components were removed by centrifugation and the pellets were resuspended in the same buffer, repeating twice. The cells then were divided into 7 treatment groups, each containing ≈1×10^7 cells in a total volume of 0.4 ml. […] Two minutes later, the reaction was terminated by adding 0.1 ml of Laemmli's sample buffer and 20 mM EDTA, followed by heating at 100° C. for 5 min. Aliquots were separated through 10% sodium dodecyl sulfate gels using known procedures. ^32 P incorporation was visualized by autoradiography.

The nature of a further data set: water solubility. It is filed as physicochemical. To be noted: for appearance of aqueous solution: neutral or physiologic pH.
A further data set has as its system HL60 cells. Description: HL60 cell binding to activated platelets. The data set is classed as cell-based, human. To be noted: thrombin- and PMA-stimulated platelets. How it is done:
FIGS. 12A and 12B depict results of representative experiments assessing the degree of HL60 binding to platelets. Platelets were exposed to inhibiting compounds (symbols are the same as in the legend to FIGS. 11A and 11B) and affixed to the wells of a microtiter plate. HL60 cells labelled with tritiated thymidine were introduced into the wells and the amount of bound radioactivity was assessed.
HL60 (a human promylelocytic cell line available from the ATCC under accession number CCL 240) adhesion on resting or activated platelet-coatedsolid phase was evaluated as follows. Each well of a 48-well plate (Costar Scientific, Cambridge, Mass.) was filled with a poly-L-lysine solution (100 μg/ml in PBS) and incubated for 1 hour. Each well then was washed with PBS and then 150 μl of PBS containing 6×10^7 resting or activated platelets were added to each well and the plate was incubated for 1 hour. Plates were centrifuged (300×g for 7 minutes) and incubated a further 30 minutes at room temperature. Bound platelets were fixed by addition of 0.1% (w/v) glutaraldehyde in PBS for 2 minutes at 4° C. Each well was washed with 10 mM glycine in PBS and plates were incubated with 5% (w/v) BSA containing 0.1% (w/v) sodium azide, 10 mM glycine in PBS for 1 hour at room temperature.
After washing with culture medium (RPMI 1640 containing 5% (v/v) FCS), 1×10^6 HL60 cells labeled with [^3 H]thymidine were added to each well. HL60 was maintained in RPMI 1640 medium (purchased from Irvine Scientific, Santa Ana, Calif.) supplemented with 10% FCS (Hyclone, Logan, Utah). (Radiolabeling of HL60 cells used for cell adhesion assays was performed by incubating cells with 2 μCi/ml of [^3 H]thymidine overnight.) After incubation for 45 minutes at room temperature, unbound cells were aspirated and wells were washed once with medium (RPMI 1640 containing 5% (v/v) FCS), bound cells were detached with 0.05% (w/v) trypsin-0.02% (w/v) EDTA (Irvine Scientific) in PBS and the levels of radioactivity in each well were determined in a liquid scintillation counter.

[4] abbreviates: chloride salts and slightly acidic pH.
[5] abbreviates: Table III, control 94, read-out: Viability.

“Also recorded” adds a separate entry of the source. Read-outs that look alike come from different tables or passages of the source.

Description for water solubility: For comparison purposes those same test cells also are exposed to sphingosine and N,N-dimethylsphingosine.

As for `CCCCCCCCCCCCC/C=C/[C@@H](O)[C@H](CO)N(C)C` [DMS, (4E)-N,N-dimethyl-D-erythro-sphingosine], the “cytotoxic damage to neutrophils” value in the data set on neutrophils is “major cytotoxic damage to neutrophils”. In data set [1], this compound came in with a cytotoxicity at 10 min, 15 µM of 12 to 13%. Further, in data set [1] (Table V, 37° C., 10 min), the viability at 10 min, 5 µM worked out at 96 ± 3%; the viability at 10 min, 25 µM stood at 29 ± 5%; the viability at 10 min, 45 µM worked out at 0%. In addition, the viability at 10 min, 15 µM in data set [1] (Table V, 37° C., 10 min, read-out: Viability of neutrophils) amounted to 88 ± 8%. Also, the activity at 5 µM in data set [2] worked out at 146 ± 27%. Moreover, in data set [3], the “phosphorylation of 47 kDa and 65 kDa proteins” value is on record as “diminished significantly”; the “time in which inhibitory effect on phosphorylation is observed” value (shortened to “time in which inhibitory effect”) is no more than 2 min. The water solubility entry in the data set “water solubility” (setting [4]) was “soluble in water”. Besides, the “appearance of aqueous solution” value in the data set “water solubility” is “tend to form opaque suspensions”. The water solubility entry in “water solubility” (particularly at physiologic pH) is recorded as “less water soluble”. Further, the “inhibition of HL60 cell binding” value in the data set with HL60 cells was “inhibited strongly”.

As for `CCCCCCCCCCCCC/C=C/[C@@H](O)[C@@H](N)CO` [SPN, sphingosine], the “cytotoxic damage to neutrophils” value with neutrophils is on record as “major cytotoxic damage to neutrophils”. This compound also came in with a cytotoxicity at 10 min, 15 µM in data set [1] of 12 to 13%. Also, the viability at 10 min, 15 µM in data set [1] (setting [5]) came out at 87 ± 5.3%. In data set [1] (Table V, 37° C., 10 min), this compound registered a viability at 10 min, 5 µM of 95 ± 3%; a viability at 10 min, 25 µM of 53 ± 18%; a viability at 10 min, 45 µM of 5 ± 5%. Further, the activity at 5 µM in data set [2] was 174 ± 37%. Further, in data set [3], the “phosphorylation of 47 kDa and 65 kDa proteins” value was “diminished significantly”; the “time in which inhibitory effect” value was no more than 2 min. Besides, in “water solubility” (setting [4]), the water solubility result is given as “soluble in water”. Besides, the “appearance of aqueous solution” value in “water solubility” is reported as “tend to form opaque suspensions”. In addition, the water solubility result in the data set “water solubility” (particularly at physiologic pH) is given as “less water soluble”. The “inhibition of HL60 cell binding” value with HL60 cells is recorded as “minimally inhibited”.

In the case of `CCCCCCCCCCCCC/C=C/[C@@H](O)[C@H](CO)[N+](C)(C)C` [TMS, N,N,N-trimethylsphingosine], in the data set with neutrophils (15 μM), the cell cytotoxicity result is listed as “no significant cell cytotoxicity” and the “cell viability during transmigration” value is reported as “without affecting the viability of the cells”. In the data set with neutrophils, the “cytotoxic damage to neutrophils” value is reported as “negligible”. Further, the cell viability result with neutrophils (Examples 9 and 10) is reported as “without an adverse effect on cell viability; also recorded: without effecting cell viability”. Moreover, in data set [1] (setting [5]), the viability at 10 min, 15 µM amounted to 97 ± 2.9%. In data set [1] (Table V, 37° C., 10 min), this compound returned a viability at 10 min, 5 µM of 98 ± 2%; a viability at 10 min, 25 µM of 83 ± 6%; a viability at 10 min, 45 µM of 63 ± 8%. Besides, the “suppression of fMLP-dependent enhancement of 32P incorporation into PI, PIP and PIP2” value in data set [2] (5 μM, fMLP 1 μM) was “suppressed strongly”. Besides, the “fMLP induced phosphorylation of phosphotidyl inositols” value in data set [2] (Example 8) was “suppressed”. Also, the activity at 5 µM in data set [2] was 127 ± 19%. For the same compound, in data set [3], the “phosphorylation of 47 kDa and 65 kDa proteins” value was “diminished significantly”; the “time in which inhibitory effect” value was no more than 2 min. In addition, the “phosphorylation of specific proteins related to protein kinase C” value in data set [3] (Example 7) is “had an affect on phosphorylation of specific proteins”. Further, the “solubility in aqueous solvents” value in “water solubility” is given as “excellent solubility”. Further, the solubility result in “water solubility” (acidic, neutral or basic conditions) is reported as “stable, clear solutions”. Besides, the water solubility entry in “water solubility” (particularly at physiologic pH) is reported as “highly water soluble”. For the same compound, in the data set with HL60 cells, the “inhibition of HL60 cell binding” value was “inhibited strongly”.

Compound Calphostin C gave a Viability with neutrophils (Table III, 5 μM, control 94, 10 min) of 46 ± 5.5.
